Experimental data reported in PubChem BioAssay (NCI).
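1) Cells in 96-well plates. 2) Compound, 48 h, 5 concentrations. 3) Linear interpolation between surrounding doses. 4) Unreached endpoint = highest concentration. The concentration for full growth arrest is given as TGI.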

Columns and labels:
Experiment in all cases: NCI anticancer screen, dose series, 48 h
OVCAR-8 ovarian = system: OVCAR-8 ovarian
SF-295 CNS = system: SF-295 CNS
OVCAR-4 ovarian = system: OVCAR-4 ovarian
TK-10 renal = system: TK-10 renal
NCI-H522 lung = system: NCI-H522 lung
UACC-62 melanoma = system: UACC-62 melanoma
SF-268 CNS = system: SF-268 CNS
CCRF-CEM leukemia = system: CCRF-CEM leukemia
XF 498 CNS = system: XF 498 CNS
KM12 colon = system: KM12 colon
A498 renal = system: A498 renal
SN12C renal = system: SN12C renal
UO-31 renal = system: UO-31 renal
RPMI-8226 leukemia = system: RPMI-8226 leukemia
MALME-3M melanoma = system: MALME-3M melanoma
HL-60(TB) leukemia = system: HL-60(TB) leukemia
786-0 renal = system: 786-0 renal
HCC-2998 colon = system: HCC-2998 colon
DMS 114 small cell lung = system: DMS 114 small cell lung
LOX IMVI melanoma = system: LOX IMVI melanoma
OVCAR-3 ovarian = system: OVCAR-3 ovarian
ACHN renal = system: ACHN renal
M19-MEL melanoma = system: M19-MEL melanoma
M14 melanoma = system: M14 melanoma
HT29 colon = system: HT29 colon
CAKI-1 renal = system: CAKI-1 renal
EKVX NSCLC = system: EKVX NSCLC
HOP-18 NSCLC = system: HOP-18 NSCLC
MOLT-4 leukemia = system: MOLT-4 leukemia
HCT-116 colon = system: HCT-116 colon
DMS 273 small cell lung = system: DMS 273 small cell lung
HCT-15 colon = system: HCT-15 colon
OVCAR-5 ovarian = system: OVCAR-5 ovarian
SW-620 colon = system: SW-620 colon
DLD-1 colon = system: DLD-1 colon
NCI-H226 lung = system: NCI-H226 lung
IGROV1 ovarian = system: IGROV1 ovarian
SF-539 CNS = system: SF-539 CNS
SK-MEL-2 melanoma = system: SK-MEL-2 melanoma
HOP-92 NSCLC = system: HOP-92 NSCLC
SK-OV-3 ovarian = system: SK-OV-3 ovarian
NCI-H460 lung = system: NCI-H460 lung
KM20L2 colon = system: KM20L2 colon
SNB-19 CNS = system: SNB-19 CNS
A549 NSCLC = system: A549 NSCLC
K-562 leukemia = system: K-562 leukemia
LXFL 529 NSCLC = system: LXFL 529 NSCLC
COLO 205 colon = system: COLO 205 colon
NCI-H23 lung = system: NCI-H23 lung
U251 CNS = system: U251 CNS
UACC-257 melanoma = system: UACC-257 melanoma
SK-MEL-5 melanoma = system: SK-MEL-5 melanoma
SNB-75 CNS = system: SNB-75 CNS
HOP-62 NSCLC = system: HOP-62 NSCLC
SK-MEL-28 melanoma = system: SK-MEL-28 melanoma
SR leukemia = system: SR leukemia
RXF 393 renal = system: RXF 393 renal

O=C(CCC(=O)Nc1ccc(Cl)c(Cl)c1)CC(=O)c1ccc(Cl)cc1
TGI (OVCAR-8 ovarian): > 100 µM | TGI (SF-295 CNS): > 100 µM | TGI (OVCAR-4 ovarian): > 100 µM | TGI (TK-10 renal): > 100 µM | TGI (NCI-H522 lung): > 100 µM | TGI (UACC-62 melanoma): > 100 µM | TGI (SF-268 CNS): > 100 µM | TGI (CCRF-CEM leukemia): > 100 µM | TGI (XF 498 CNS): > 100 µM | TGI (KM12 colon): > 100 µM | TGI (A498 renal): > 100 µM | TGI (SN12C renal): > 100 µM | TGI (UO-31 renal): > 100 µM | TGI (RPMI-8226 leukemia): > 100 µM | TGI (MALME-3M melanoma): > 100 µM | TGI (HL-60(TB) leukemia): > 100 µM | TGI (786-0 renal): > 100 µM | TGI (HCC-2998 colon): > 100 µM | TGI (DMS 114 small cell lung): > 100 µM | TGI (LOX IMVI melanoma): > 100 µM | TGI (OVCAR-3 ovarian): > 100 µM | TGI (ACHN renal): > 100 µM | TGI (M19-MEL melanoma): > 100 µM | TGI (M14 melanoma): > 100 µM | TGI (HT29 colon): > 100 µM | TGI (CAKI-1 renal): > 100 µM | TGI (EKVX NSCLC): > 100 µM | TGI (HOP-18 NSCLC): > 100 µM | TGI (MOLT-4 leukemia): > 100 µM | TGI (HCT-116 colon): > 100 µM | TGI (DMS 273 small cell lung): > 100 µM | TGI (HCT-15 colon): > 100 µM | TGI (OVCAR-5 ovarian): > 100 µM | TGI (SW-620 colon): > 100 µM | TGI (DLD-1 colon): > 100 µM | TGI (NCI-H226 lung): > 100 µM | TGI (IGROV1 ovarian): > 100 µM | TGI (SF-539 CNS): > 100 µM | TGI (SK-MEL-2 melanoma): > 100 µM | TGI (HOP-92 NSCLC): > 100 µM | TGI (SK-OV-3 ovarian): > 100 µM | TGI (NCI-H460 lung): > 100 µM | TGI (KM20L2 colon): > 100 µM | TGI (SNB-19 CNS): > 100 µM | TGI (A549 NSCLC): > 100 µM | TGI (K-562 leukemia): > 100 µM | TGI (LXFL 529 NSCLC): > 100 µM | TGI (COLO 205 colon): > 100 µM | TGI (NCI-H23 lung): > 100 µM | TGI (U251 CNS): > 100 µM | TGI (UACC-257 melanoma): > 100 µM

COc1ccccc1N=NC(C(=O)c1ccccc1)C(=O)c1ccccc1
TGI (OVCAR-8 ovarian): > 100 µM | TGI (SF-295 CNS): 87.6 µM | TGI (OVCAR-4 ovarian): 74.2 µM | TGI (TK-10 renal): > 100 µM | TGI (NCI-H522 lung): 47 µM | TGI (UACC-62 melanoma): 52.3 µM | TGI (SF-268 CNS): > 100 µM | TGI (CCRF-CEM leukemia): 60 µM | TGI (XF 498 CNS): 53.5 µM | TGI (KM12 colon): > 100 µM | TGI (A498 renal): > 100 µM | TGI (SN12C renal): 53.1 µM | TGI (UO-31 renal): 37.3 µM | TGI (RPMI-8226 leukemia): 58.7 µM | TGI (MALME-3M melanoma): 88.9 µM | TGI (HL-60(TB) leukemia): 33.7 µM | TGI (786-0 renal): > 100 µM | TGI (HCC-2998 colon): 70.4 µM | TGI (DMS 114 small cell lung): 40.5 µM | TGI (LOX IMVI melanoma): 51.1 µM | TGI (OVCAR-3 ovarian): > 100 µM | TGI (ACHN renal): 83.6 µM | TGI (M19-MEL melanoma): 41.3 µM | TGI (M14 melanoma): 31.6 µM | TGI (HT29 colon): 82.3 µM | TGI (CAKI-1 renal): 77.3 µM | TGI (EKVX NSCLC): 67.8 µM | TGI (SK-MEL-5 melanoma): 54.5 µM | TGI (MOLT-4 leukemia): 60.4 µM | TGI (HCT-116 colon): 28.6 µM | TGI (DMS 273 small cell lung): 57.9 µM | TGI (HCT-15 colon): 47.6 µM | TGI (OVCAR-5 ovarian): 71.5 µM | TGI (SW-620 colon): > 100 µM | TGI (DLD-1 colon): 54.9 µM | TGI (NCI-H226 lung): 35.9 µM | TGI (IGROV1 ovarian): > 100 µM | TGI (SF-539 CNS): > 100 µM | TGI (SNB-75 CNS): 82.3 µM | TGI (SK-MEL-2 melanoma): 53.4 µM | TGI (HOP-62 NSCLC): 52.1 µM | TGI (SK-OV-3 ovarian): 89.4 µM | TGI (NCI-H460 lung): 82.2 µM | TGI (KM20L2 colon): 58.2 µM | TGI (SK-MEL-28 melanoma): > 100 µM | TGI (SNB-19 CNS): 70.1 µM | TGI (A549 NSCLC): 78.3 µM | TGI (K-562 leukemia): > 100 µM | TGI (LXFL 529 NSCLC): > 100 µM | TGI (COLO 205 colon): > 100 µM | TGI (NCI-H23 lung): 68.1 µM | TGI (U251 CNS): > 100 µM | TGI (UACC-257 melanoma): 89.2 µM

CCC1(O)C(=O)OCc2c1cc1n(c2=O)Cc2cc3cc(OC)c(OC)cc3nc2-1 (stereo not drawn)
TGI (OVCAR-8 ovarian): > 100 µM | TGI (SF-295 CNS): > 100 µM | TGI (OVCAR-4 ovarian): > 100 µM | TGI (TK-10 renal): > 100 µM | TGI (NCI-H522 lung): > 100 µM | TGI (SF-268 CNS): > 100 µM | TGI (CCRF-CEM leukemia): > 100 µM | TGI (XF 498 CNS): > 100 µM | TGI (KM12 colon): > 100 µM | TGI (A498 renal): > 100 µM | TGI (SN12C renal): 87.4 µM | TGI (UO-31 renal): > 100 µM | TGI (RPMI-8226 leukemia): > 100 µM | TGI (MALME-3M melanoma): > 100 µM | TGI (HL-60(TB) leukemia): > 100 µM | TGI (786-0 renal): 54.2 µM | TGI (HCC-2998 colon): > 100 µM | TGI (DMS 114 small cell lung): > 100 µM | TGI (LOX IMVI melanoma): > 100 µM | TGI (OVCAR-3 ovarian): > 100 µM | TGI (ACHN renal): 37.3 µM | TGI (M14 melanoma): > 100 µM | TGI (HT29 colon): > 100 µM | TGI (EKVX NSCLC): > 100 µM | TGI (SK-MEL-5 melanoma): > 100 µM | TGI (HOP-18 NSCLC): > 100 µM | TGI (MOLT-4 leukemia): > 100 µM | TGI (HCT-116 colon): > 100 µM | TGI (OVCAR-5 ovarian): > 100 µM | TGI (NCI-H226 lung): 88.6 µM | TGI (IGROV1 ovarian): 67.4 µM | TGI (SF-539 CNS): 35.2 µM | TGI (SNB-75 CNS): 41 µM | TGI (HOP-92 NSCLC): > 100 µM | TGI (HOP-62 NSCLC): 8.38 µM | TGI (SK-OV-3 ovarian): 89 µM | TGI (NCI-H460 lung): 28.5 µM | TGI (KM20L2 colon): > 100 µM | TGI (SK-MEL-28 melanoma): > 100 µM | TGI (SR leukemia): 7.68 µM | TGI (SNB-19 CNS): 85.2 µM | TGI (A549 NSCLC): > 100 µM | TGI (RXF 393 renal): 71.8 µM | TGI (K-562 leukemia): > 100 µM | TGI (LXFL 529 NSCLC): > 100 µM | TGI (COLO 205 colon): > 100 µM | TGI (NCI-H23 lung): > 100 µM | TGI (U251 CNS): 35 µM | TGI (UACC-257 melanoma): > 100 µM
